Test results published in patent publication US11352358B2, “FXR agonist” (XUANZHU BIOPHARMACEUTICAL CO., LTD., priority 2017, dated 2022).
pEC50: −log10 of the molar value.

What was measured:
BSEP mRNA in HepG2 cells = experiment: Relative expression of BSEP mRNA in HepG2 cells (qPCR), Experimental Example 1; assay type: cell-based, human; conditions: Table 1, 24 hrs, expression under 3 μM of PX-104 as 100%
Procedure: compounds of the present invention (for their chemical names and preparation methods, see the preparation example of each compound); compound PX-104 and compound 30-70 (for their structures, see the background of the invention, and for their preparation methods, see patent applications WO2011020615A1 and WO2012087519A1).
(§1) Cells were digested with pancreatin and collected, and the concentration of the cells was determined; according to the counting result, the cells were resuspended to a density of 7.5×10^5 cells/mL; 2 mL of the cell suspension was inoculated in each well of a 6-well cell culture plate; and the culture plate was placed in an incubator and cultured under the conditions of 37° C. and 5% CO2 for 24 hrs.
The to-be-tested compounds were diluted to 0.3 mM and 3 mM with DMSO; and 5 μL of each stock solution diluted in the previous step was added to 5 mL of medium individually. The concentrations of the obtained working solutions were 0.3 μM and 3 μM respectively. In the control group, medium was prepared by using equivoluminal DMSO instead of the stock solutions; the cell culture plate was taken out from the incubator; the medium was removed from the cell culture plate, and the working solutions and the control medium were added correspondingly; and the culture plate was then put back into the incubator and cultured under the conditions of 37° C. and 5% CO2 for 24 hrs.
after treatment for 24 hrs, the cell culture plate was taken out, and the medium was removed from the plate; the cells were rinsed three times with pre-cooled (4° C.) PBS; and 200 μL of pancreatin (preheated to 37° C.) was added to each well, and the plate was then gently shaken such that the pancreatin could evenly cover the plate bottom. The culture plate was then placed back into the incubator and incubated until the cells were separated from the plate bottom. 1 mL of medium was added to terminate digestion. The solution was gently pipetted and blown for several times with a pipettor, all the substances in each well were pipetted into a 1.5 mL Rnase-free centrifuge tube and centrifuged at 200×g for 5 mins; supernatants were removed to collect cell samples.
Cell lysis: Fresh RNA lysis buffer was prepared (wherein 10 μL of 2-mercaptoethanol was added to 1 mL of lysis buffer); 600 μL of lysis buffer was added to each cell sample; the cells were lysed completely by 1 to 2 mins of vigorous vortexing; the cell lysates were centrifuged at 12,000×g for 5 mins; and the supernatants were transferred to 1.5 mL Rnase-free centrifuge tubes.
Extraction and purification of RNA: An equal amount of 70% ethanol was added to each cell lysate; the centrifuge tubes were then shaken vigorously, and the buffer was mixed sufficiently, so that the particulate precipitates that might be formed after the addition of ethanol were dispersed as even as possible; and adsorption columns were put into collecting tubes, and the mixtures were transferred to the adsorption columns. 700 μL was transferred at most each time; and the solutions were centrifuged at 12,000×g under room temperature for 15 secs. The solutions in the collecting tubes were discarded, and the adsorption columns were put into the collecting tubes once again; and all the remaining mixtures were then transferred into the adsorption columns. 700 μL of eluent I was added to the adsorption column; and the solutions were centrifuged at 12,000×g under room temperature for 15 secs. The adsorption columns were put into new collecting tubes; 500 μL of eluent II was added to the adsorption column; and the solutions were centrifuged at 12,000×g under room temperature for 15 secs. […]

SHP mRNA in AML12 cells = experiment: Relative expression of SHP mRNA in AML12 cells, EC50 (Experimental Example 4); assay type: cell-based; conditions: Mus musculus, 24 hrs
Procedure: compounds of the present invention (for their chemical names and preparation methods, see the preparation example for each compound).
AML12 cells: mouse liver cells.
Control: compound 1-1B with a structure shown as follows, prepared according to a prior art method (for detailed information, see patent application WO2012087519A1).
as §1, with “of 7.5×10^4” for “of 7.5×10^5”, “cells/mL; 1” for “cells/mL; 2”, “a 12-well” for “a 6-well”
The compound were diluted to 1000, 200, 8, 1.6, 0.32, 0.128, 0.0256 and 0.00512 μM with DMSO. Compound solutions of different concentrations obtained in the previous step were further diluted by 1000 times with media to obtain working solutions, and a medium containing 0.1% of DMSO was adopted as a control group. The cell culture plate was taken out from the incubator, the medium was removed, and the working solutions and the control medium were added. The culture plate was placed back into the incubator and cultured under the conditions of 37° C. and 5% CO2 for 24 hrs.
after treatment for 24 hrs, the cell culture plate was taken out from the incubator, and the medium was removed from the plate; the cells were rinsed three times with pre-cooled (4° C.) PBS (phosphate buffer solution); and 200 μL of pancreatin (preheated to 37° C.) was added to each well, and the plate was then gently shaken such that the pancreatin could evenly cover the plate bottom. The culture plate was then placed back into the incubator and incubated until the cells were separated from the plate bottom. 1 mL of medium was added to terminate digestion. […]

- pEC50 (SHP mRNA in AML12 cells): 9.12
SMILES: O=C(O)c1ccc2nc(N3C[C@@H]4C[C@H]3C[C@H]4OCc3c(-c4c(Cl)cccc4Cl)noc3C3CC3)sc2c1 [Compound 2-1, 2-((1S, 4S, 5R)-5-((5-cyclopropyl-3-(2,6-dichlorophenyl)isoxazol-4-yl)methoxy)-2-azabicyclo[2.2.1]heptan-2-yl)benzo[d]thiazole-6-carboxylic acid]
- relative expression of BSEP mRNA in HepG2 cells (BSEP mRNA in HepG2 cells; 0.3 μM): 166%
- relative expression of BSEP mRNA in HepG2 cells (BSEP mRNA in HepG2 cells; 3 μM): 185%
